Test results taken from patent US20130116231A1, “TYROSINE KINASE INHIBITORS” (Merck Sharp & Dohme Corp., priority 2010, published 2013).

Each compound was assayed against T1, human c-Met (Homo sapiens, UniProt P08581) (assay: in vitro kinase assay (homogeneous time-resolved tyrosine kinase assay, METKA)). Conditions: recombinant GST-tagged c-Met cytosolic domain, HTRF, 50 μM MgATP; read-out: Biological Activity (METKA IC50) Activity Code.
T1 construct: Recombinant GST-tagged cytosolic domains of human c-Met; 6xHis; made in house; host or cells: Sf9 or Sf21 insect cells (baculovirus)
T1 sequence (P08581 956-1390 limits assumed): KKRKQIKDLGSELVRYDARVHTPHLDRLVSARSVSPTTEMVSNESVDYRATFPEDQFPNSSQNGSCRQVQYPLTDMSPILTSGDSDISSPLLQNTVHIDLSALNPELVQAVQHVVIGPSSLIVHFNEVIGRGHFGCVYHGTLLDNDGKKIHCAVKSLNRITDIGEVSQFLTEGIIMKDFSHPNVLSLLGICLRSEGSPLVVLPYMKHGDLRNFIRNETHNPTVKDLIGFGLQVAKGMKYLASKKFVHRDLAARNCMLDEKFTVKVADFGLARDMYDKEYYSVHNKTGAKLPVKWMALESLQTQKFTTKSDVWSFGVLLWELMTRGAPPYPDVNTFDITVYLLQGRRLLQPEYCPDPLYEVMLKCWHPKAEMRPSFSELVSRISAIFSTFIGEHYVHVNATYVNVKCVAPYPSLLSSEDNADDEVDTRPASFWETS
Format: biochemical
Source text: Recombinant GST-tagged cytosolic domains of human c-Met and other receptor tyrosine kinases including mouse c-Met, human Ron, KDR, IGFR, EGFR, FGFR, Mer, TrkA and Tie2 are used to determine whether the compounds of the instant invention modulate the enzymatic activities of these kinases.
Soluble recombinant GST-tagged cytosolic domains of c-Met and other receptor tyrosine kinases are expressed in a baculovirus system (Pharmingen) according to a protocol recommended by the manufacturer. The c-DNA encoding each cytosolic domain is subcloned into a baculovirus expression vector (pGcGHLT-A, B or C, Pharmingen) containing an in frame 6× histidine tag and a GST tag. The resulting plasmid construct and BaculoGold baculovirus DNA (Pharmingen) are used to co-transfect Sf9 or Sf21 insect cells. After confirming expression of GST-tagged kinase fusion, a high titer recombinant baculovirus stock is produced, expression conditions are optimized, and a scaled up expression of rat KDR-GST fusion is performed. The fusion kinase is then purified from the insect cell lysate by affinity chromatography using glutathione agarose (Pharmingen). The purified protein is dialyzed against 50% glycerol, 2 mM DTT, 50 mM Tris-HCl (pH 7.4) and stored at −20° C. The protein concentrations of the fusion proteins are determined using Coomassie Plus Protein Assay (Pierce) with BSA as standard.
The kinase activities of c-Met and other kinases are measured using a modified version of the homogeneous time-resolved tyrosine kinase assay described by Park et al. (1999, Anal. Biochem. 269:94-104).
The procedure for determining the potency of a compound to inhibit c-Met kinase comprises the following steps: • 1. Prepare 3-fold serial diluted compound solutions in 100% dimethyl sulfoxide (DMSO) at 20× of the desired final concentrations in a 96 well plate. • 2. Prepare a master reaction mix containing 6.67 mM MgCl2, 133.3 mM NaCl, 66.7 mM Tris-HCl (pH 7.4), 0.13 mg/ml BSA, 2.67 mM dithiothreitol, 0.27 nM recombinant c-Met and 666.7 nM biotinylated synthetic peptide substrate (biotin-ahx-EQEDEPEGDYFEWLE-CONH2) (SEQ.ID.NO.:1). • 3. In a black assay plate, add 2.5 μl of compound solution (or DMSO) and 37.5 μl of master reaction mix per well. Initiate the kinase reaction by adding 10 μl of 0.25 mM MgATP per well. Allow the reactions to proceed for 80 min at room temperature. The final conditions for the reaction are 0.2 nM c-Met, 0.5 μM substrate, 50 μM MgATP, […], 100 mM NaCl, 2 mM DTT, 0.1 mg/ml BSA, 50 mM Tris (pH 7.4) and 5% DMSO. • 4. Stop the kinase reaction with 50 μl of Stop/Detection buffer containing 10 mM EDTA, 25 mM HEPES, 0.1% TRITON X-100, 0.126 μg/ml Eu-chelate labeled anti-phosphotyrosine antibody PY20 (cat. #AD0067, PerkinElmer) and 45 μg/ml Streptavidin-allophycocyanin conjugate (cat. #PJ25S, Prozyme). • 5. Read HTRF signals on a Victor reader (PerkinElmer) in HTRF mode after 60 min. • 6. IC50 is determined by fitting the observed relationship between compound concentration and HTRF signal with a 4-parameter logistic equation. Essentially the same procedure was used to determine the potency of compounds to inhibit mouse c-Met, human Ron, KDR, IGFR, EGFR, FGFR, Mer, TrkA and Tie2 except that the concentration of enzyme varied in individual assays (0.2 nM mouse c-Met; 2.5 nM Ron, 8 nM KDR; 0.24 nM IGFR; 0.24 nM EGFR; 0.14 nM FGFR; 16 nM Mer; 8 nM TrkA; 8 nM Tie2).

SMILES	IC50
COCCOc1cnc2ccc(C(C)Oc3nn(-c4cnn(C)c4)ccc3=O)cc2c1 (single isomer, unassigned) [Example 143, 3-{1-[3-(2-methoxyethoxy)quinolin-6-yl]ethoxy}-1-(1-methyl-1H-pyrazol-4-yl)pyridazin-4(1H)-one]	< 100 nM
Cn1cc(-c2cnc3ccc(COc4nn(-c5cnn(C)c5)ccc4=O)cc3c2)cn1 [Example 129, 1-(1-methyl-1H-pyrazol-4-yl)-3-{[3-(1-methyl-1H-pyrazol-4-yl)quinolin-6-yl]methoxy}pyridazin-4(1H)-one]	< 100 nM
Cn1cc(-n2ccc(=O)c(COc3ccc4nc(C#N)sc4c3)n2)cn1 [Example 14, 6-{[1-(1-methyl-1H-pyrazol-4-yl)-4-oxo-1,4-dihydropyridazin-3-yl]methoxy}-1,3-benzothiazole-2-carbonitrile]	1000 to 3000 nM
CCOC(=O)Nc1ccc(OCc2nn(-c3cnn(C)c3)ccc2=O)cc1 [Example 122, ethyl (4-{[1-(1-methyl-1H-pyrazol-4-yl)-4-oxo-1,4-dihydropyridazin-3-yl]methoxy}phenyl)carbamate]	100 to 1000 nM
Cn1cc(-n2ccc(=O)c(COc3ccc([N+](=O)[O-])cc3)n2)cn1 [Example 9, 1-(1-methyl-1H-pyrazol-4-yl)-3-[(4-nitrophenoxy)methyl] pyridazin-4(1H)-one]	1000 to 3000 nM
CC(Oc1ccc2ncccc2c1)c1nn(-c2cccc(Br)c2)ccc1=O (single isomer, unassigned) [Example 114, 1-(3-bromophenyl)-3-[1-(quinolin-6-yloxy)ethyl]pyridazin-4(1H)-one]	1000 to 3000 nM
NC(=O)c1cccc(-n2ccc(=O)c(COc3ccc4ncccc4c3)n2)c1 [Example 51, 3-{4-Oxo-3-[(quinolin-6-yloxy)methyl]pyridazin-1(4H)-yl}benzamide]	< 100 nM
Cn1cc(-n2ccc(=O)c(CNc3ccc4ncccc4c3)n2)cn1 [Example 104, 1-(1-Methyl-1H-pyrazol-4-yl)-3-[(quinolin-6-ylamino)methyl]pyridazin-4(1H)-one]	< 100 nM
O=c1ccn(-c2cccc(Br)c2)nc1COc1ccc2ncccc2c1 [Example 20, 1-(3-Bromophenyl)-3-[(quinolin-6-yloxy)methyl]pyridazin-4(1H)-one]	< 100 nM
COCCOc1cnc2ccc(C(C)Oc3nn(-c4cnn(C)c4)ccc3=O)cc2c1 (single isomer, unassigned) [Example 144, 3-{1-[3-(2-methoxyethoxy)quinolin-6-yl]ethoxy}-1-(1-methyl-1H-pyrazol-4-yl)pyridazin-4(1H)-one]	100 to 1000 nM
Cn1cc(-n2ccc(=O)c(CCc3ccnc4[nH]ccc34)n2)cn1 [Example 55, 1-(1-methyl-1H-pyrazol-4-yl)-3-[2-(1H-pyrrolo[2,3-b]pyridin-4-yl)ethyl]pyridazin-4(1H)-one]	1000 to 3000 nM
C=C(Cc1nn(-c2cnn(C)c2)ccc1=O)c1ccc2ncccc2c1 [Example 124, 1-(1-Methyl-1H-pyrazol-4-yl)-3-(2-quinolin-6-ylprop-2-en-1-yl)pyridazin-4(1H)-one]	100 to 1000 nM
Cn1cc(-n2ccc(=O)c(COc3ccc4ncc(C(=O)N5CCOCC5)cc4c3)n2)cn1 [Example 109, 1-(1-methyl-1H-pyrazol-4-yl)-3-({[3-(morpholin-4-ylcarbonyl)quinolin-6-yl]oxy}methyl)pyridazin-4(1H)-one]	1000 to 3000 nM
Cn1cc(-n2ccc(=O)c(COc3ccc4ncc(-n5ccnn5)cc4c3)n2)cn1 [Example 42, 1-(1-Methyl-1H-pyrazol-4-yl)-3-({[3-(1H-1,2,3-triazol-1-yl)quinolin-6-yl]oxy}methyl)pyridazin-4(1H)-one]	< 100 nM
Cn1cc(-n2ccc(=O)c(CCc3ccc(N)cc3)n2)cn1 [Example 117, 3-[2-(4-aminophenyl)ethyl]-1-(1-methyl-1H-pyrazol-4-yl)pyridazin-4(1H)-one]	1000 to 3000 nM
CC(Oc1nn(-c2cnn(C)c2)ccc1=O)c1ccc2ncccc2c1 (single isomer, unassigned) [Example 138, 1-(1-methyl-1H-pyrazol-4-yl)-3-(1-quinolin-6-ylethoxy)pyridazin-4(1H)-one]	100 to 1000 nM

Continued, values first:

IC50	SMILES
< 100 nM	CCn1cc(-n2ccc(=O)c(COc3ccc4ncc(-c5cscn5)cc4c3)n2)cn1 [Example 86, 1-(1-ethyl-1H-pyrazol-4-yl)-3-({[3-(1,3-thiazol-4-yl)quinolin-6-yl]oxy}methyl)pyridazin-4(1H)-one]
< 100 nM	CCn1cc(-n2ccc(=O)c(COc3ccc4ncc(-c5ccc(C(F)(F)F)cc5)cc4c3)n2)cn1 [Example 89, 1-(1-ethyl-1H-pyrazol-4-yl)-3-[({3-[4-(trifluoromethyl)phenyl]quinolin-6-yl}oxy)methyl]pyridazin-4(1H)-one]
< 100 nM	CCOc1cnc2ccc(OCc3nn(-c4cnn(C)c4)ccc3=O)cc2c1 [Example 23, 3-{[(3-Ethoxyquinolin-6-yl)oxy]methyl}-1-(1-methyl-1H-pyrazol-4-yl)pyridazin-4(1H)-one]
< 100 nM	CCn1cc(-n2ccc(=O)c(COc3ccc4ncc(-c5ccc(OC)cc5)cc4c3)n2)cn1 [Example 79, 1-(1-ethyl-1H-pyrazol-4-yl)-3-({[3-(4-methoxyphenyl)quinolin-6-yl]oxy}methyl)pyridazin-4(1H)-one]
< 100 nM	COCCOc1cnc2ccc(OCc3nn(-c4cc(F)cc(F)c4)ccc3=O)cc2c1 [Example 31, 1-(3,5-difluorophenyl)-3-({[3-(2-methoxyethoxy)quinolin-6-yl]oxy}methyl)pyridazin-4(1H)-one]
< 100 nM	COCc1cn(-c2cnc3ccc(OCc4nn(-c5cnn(C)c5)ccc4=O)cc3c2)nn1 [Example 40, 3-[({3-[4-(methoxymethyl)-1H-1,2,3-triazol-1-yl]quinolin-6-yl}oxy)methyl]-1-(1-methyl-1H-pyrazol-4-yl)pyridazin-4(1H)-one]
< 100 nM	Cn1cc(-n2ccc(=O)c(COc3ccc4ncc(OC5COC5)cc4c3)n2)cn1 [Example 63, 1-(1-Methyl-1H-pyrazol-4-yl)-3-({[3-(oxetan-3-yloxy)quinolin-6-yl]oxy}methyl)pyridazin-4(1H)-one]
< 100 nM	CCOc1cnc2ccc(OCc3nn(-c4cc(F)cc(C#N)c4)ccc3=O)cc2c1 [Example 44, 3-[3-{[(3-ethoxyquinolin-6-yl)oxy]methyl}-4-oxopyridazin-1(4H)-yl]-5-fluorobenzonitrile]
< 100 nM	Cn1cc(-n2ccc(=O)c(COc3ccc4ncc(OCC5CCOC5)cc4c3)n2)cn1 (stereo not shown) [Example 25, 1-(1-methyl-1H-pyrazol-4-yl)-3-({[3-(tetrahydrofuran-3-ylmethoxy)quinolin-6-yl]oxy}methyl)pyridazin-4(1H)-one]
< 100 nM	CCn1cc(-n2ccc(=O)c(COc3ccc4ncc(-c5ccc(Cl)nc5)cc4c3)n2)cn1 [Example 88, 3-({[3-(6-chloropyridin-3-yl)quinolin-6-yl]oxy}methyl)-1-(1-ethyl-1H-pyrazol-4-yl)pyridazin-4(1H)-one]
< 100 nM	[2H]C([2H])([2H])C([2H])([2H])Oc1cnc2ccc(OCc3nn(-c4cnn(C)c4)ccc3=O)cc2c1 [Example 64, 3-[({3-[(^2H5)ethyloxy]quinolin-6-yl}oxy)methyl]-1-(1-methyl-1H-pyrazol-4-yl)pyridazin-4(1H)-one]
< 100 nM	CCOc1ccnc2ccc(OCc3nn(-c4cnn(C)c4)ccc3=O)cc12 [Example 43, 3-{[(4-Ethoxyquinolin-6-yl)oxy]methyl}-1-(1-methyl-1H-pyrazol-4-yl)pyridazin-4(1H)-one]
